Results from article PMC9232501, “Results of the phase I CCTG IND.231 trial of CX-5461 in patients with advanced solid tumors enriched for DNA-repair deficiencies” (Nature Communications, 2022).
Marks after values point to notes of the source that are not given here.

System: patients with advanced solid tumors
Experiment: Phase I dose escalation: safety, tolerability, dose-limiting toxicity (CTCAE v4.0)
[1] = 325 mg/m^2 d1,8,15, N patients 4
[2] = 650 mg/m^2 d1,8,15, N patients 5
[3] = 40 treated patients, all dose levels
[4] = 475* mg/m^2 d1,8,15, N patients 6

Cc1cnc(CNC(=O)c2c(=O)c3ccc(N4CCCN(C)CC4)nc3n3c2sc2ccccc23)cn1 [CX-5461]
Diarrhea, any causality, all grades (patients) (50 mg/m^2 d1,8, N patients 4): 2
Dry eye, any causality, all grades (patients) (50 mg/m^2 d1,8, N patients 4): 1
Fatigue, any causality, all grades (patients) (50 mg/m^2 d1,8, N patients 4): 4
Headache, any causality, all grades (patients) (50 mg/m^2 d1,8, N patients 4): 1
Nausea, any causality, all grades (patients) (50 mg/m^2 d1,8, N patients 4): 3
Palmar–plantar erythrodysesthesia syndrome, any causality, all grades (patients) (50 mg/m^2 d1,8, N patients 4): 1
Phototoxicity, any causality, all grades (patients) (50 mg/m^2 d1,8, N patients 4): 2
Phototoxicity, number in parentheses (undefined in table; fits grade 3–4 count) (50 mg/m^2 d1,8, N patients 4): 1
Diarrhea, any causality, all grades (patients) (100 mg/m^2 d1,8, N patients 4): 1
Dry eye, any causality, all grades (patients) (100 mg/m^2 d1,8, N patients 4): 1
Eye phototoxicity, any causality, all grades (patients) (100 mg/m^2 d1,8, N patients 4): 1
Fatigue, any causality, all grades (patients) (100 mg/m^2 d1,8, N patients 4): 3
Headache, any causality, all grades (patients) (100 mg/m^2 d1,8, N patients 4): 3
Mucositis oral, any causality, all grades (patients) (100 mg/m^2 d1,8, N patients 4): 2
Nausea, any causality, all grades (patients) (100 mg/m^2 d1,8, N patients 4): 3
Palmar–plantar erythrodysesthesia syndrome, any causality, all grades (patients) (100 mg/m^2 d1,8, N patients 4): 1
Phototoxicity, any causality, all grades (patients) (100 mg/m^2 d1,8, N patients 4): 1
Diarrhea, any causality, all grades (patients) (150 mg/m^2 d1,8, N patients 4): 1
Dry eye, any causality, all grades (patients) (150 mg/m^2 d1,8, N patients 4): 2
Fatigue, any causality, all grades (patients) (150 mg/m^2 d1,8, N patients 4): 3
Headache, any causality, all grades (patients) (150 mg/m^2 d1,8, N patients 4): 2
Mucositis oral, any causality, all grades (patients) (150 mg/m^2 d1,8, N patients 4): 1
Nausea, any causality, all grades (patients) (150 mg/m^2 d1,8, N patients 4): 4
Palmar–plantar erythrodysesthesia syndrome, any causality, all grades (patients) (150 mg/m^2 d1,8, N patients 4): 1
Phototoxicity, any causality, all grades (patients) (150 mg/m^2 d1,8, N patients 4): 1
ALT, Grade 3 or 4 (patients) (150 mg/m^2 d1,8, N pts 4): 2
AST, Grade 3 or 4 (patients) (150 mg/m^2 d1,8, N pts 4): 2
Alkaline phosphatase, Grade 3 or 4 (patients) (150 mg/m^2 d1,8, N pts 4): 1
Bilirubin, Grade 3 or 4 (patients) (150 mg/m^2 d1,8, N pts 4): 1
Neutropenia, Grade 3 or 4 (patients) (150 mg/m^2 d1,8, N pts 4): 1
Thrombocytopenia, Grade 3 or 4 (patients) (150 mg/m^2 d1,8, N pts 4): 1
Diarrhea, any causality, all grades (patients) (200 mg/m^2 d1,8, N patients 4): 2
Dry eye, any causality, all grades (patients) (200 mg/m^2 d1,8, N patients 4): 1
Fatigue, any causality, all grades (patients) (200 mg/m^2 d1,8, N patients 4): 2
Nausea, any causality, all grades (patients) (200 mg/m^2 d1,8, N patients 4): 3
Phototoxicity, any causality, all grades (patients) (200 mg/m^2 d1,8, N patients 4): 2
ALT, Grade 3 or 4 (patients) (200 mg/m^2 d1,8, N pts 4): 1
AST, Grade 3 or 4 (patients) (200 mg/m^2 d1,8, N pts 4): 1
Anemia, Grade 3 or 4 (patients) (200 mg/m^2 d1,8, N pts 4): 1
Fatigue, any causality, all grades (patients) (250 mg/m^2 d1,8, N patients 3): 2
Headache, any causality, all grades (patients) (250 mg/m^2 d1,8, N patients 3): 1
Mucositis oral, any causality, all grades (patients) (250 mg/m^2 d1,8, N patients 3): 1
Nausea, any causality, all grades (patients) (250 mg/m^2 d1,8, N patients 3): 2
Palmar–plantar erythrodysesthesia syndrome, any causality, all grades (patients) (250 mg/m^2 d1,8, N patients 3): 2
Phototoxicity, any causality, all grades (patients) (250 mg/m^2 d1,8, N patients 3): 3
Phototoxicity, number in parentheses (undefined in table; fits grade 3–4 count) (250 mg/m^2 d1,8, N patients 3): 1
Dry eye, any causality, all grades (patients) [1]: 1
Eye phototoxicity, any causality, all grades (patients) [1]: 1
Fatigue, any causality, all grades (patients) [1]: 2
Nausea, any causality, all grades (patients) [1]: 1
Palmar–plantar erythrodysesthesia syndrome, any causality, all grades (patients) [1]: 1
Phototoxicity, any causality, all grades (patients) [1]: 4
Phototoxicity, number in parentheses (undefined in table; fits grade 3–4 count) [1]: 1
AST, Grade 3 or 4 (patients) (325 mg/m^2 d1,8,15, N pts 4): 1
Neutropenia, Grade 3 or 4 (patients) (325 mg/m^2 d1,8,15, N pts 4): 1
Diarrhea, any causality, all grades (patients) (325 mg/m^2 d1,8, N patients 3): 1
Fatigue, any causality, all grades (patients) (325 mg/m^2 d1,8, N patients 3): 3
Fatigue, number in parentheses (undefined in table; fits grade 3–4 count) (325 mg/m^2 d1,8, N patients 3): 1
Nausea, any causality, all grades (patients) (325 mg/m^2 d1,8, N patients 3): 2
Nausea, number in parentheses (undefined in table; fits grade 3–4 count) (325 mg/m^2 d1,8, N patients 3): 1
Palmar–plantar erythrodysesthesia syndrome, any causality, all grades (patients) (325 mg/m^2 d1,8, N patients 3): 1
Phototoxicity, any causality, all grades (patients) (325 mg/m^2 d1,8, N patients 3): 1
Eye phototoxicity, any causality, all grades (patients) (475 mg/m^2 d1,8, N patients 3): 1
Fatigue, any causality, all grades (patients) (475 mg/m^2 d1,8, N patients 3): 2
Mucositis oral, any causality, all grades (patients) (475 mg/m^2 d1,8, N patients 3): 1
Nausea, any causality, all grades (patients) (475 mg/m^2 d1,8, N patients 3): 1
Palmar–plantar erythrodysesthesia syndrome, any causality, all grades (patients) (475 mg/m^2 d1,8, N patients 3): 1
Phototoxicity, any causality, all grades (patients) (475 mg/m^2 d1,8, N patients 3): 3
Diarrhea, any causality, all grades (patients) [2]: 1
Dry eye, any causality, all grades (patients) [2]: 1
Eye phototoxicity, any causality, all grades (patients) [2]: 3
Fatigue, any causality, all grades (patients) [2]: 3
Fatigue, number in parentheses (undefined in table; fits grade 3–4 count) [2]: 1
Headache, any causality, all grades (patients) [2]: 1
Mucositis oral, any causality, all grades (patients) [2]: 2
Nausea, any causality, all grades (patients) [2]: 3
Palmar–plantar erythrodysesthesia syndrome, any causality, all grades (patients) [2]: 1 (1)
Palmar–plantar erythrodysesthesia syndrome, number in parentheses (undefined in table; fits grade 3–4 count) [2]: 1 (1)
Phototoxicity, any causality, all grades (patients) [2]: 3
Phototoxicity, number in parentheses (undefined in table; fits grade 3–4 count) [2]: 1
Alkaline phosphatase, Grade 3 or 4 (patients) (650 mg/m^2 d1,8,15, N pts 5): 1
Neutropenia, Grade 3 or 4 (patients) (650 mg/m^2 d1,8,15, N pts 5): 2
toxicity to ionizing radiation (13 patients who received radiotherapy during or following treatment): no excess toxicity to ionizing radiation
Treatment-related Dry eye, Grade 3–4, % (40 treated patients): 0%
Treatment-related Dry eye, Total, % (40 treated patients): 10%
Treatment-related Eye phototoxicity, Grade 1–2, % (40 treated patients): 20%
Treatment-related Eye phototoxicity, Grade 3–4, % (40 treated patients): 0%
Treatment-related Eye phototoxicity, Total, % (40 treated patients): 20%
Treatment-related Headache, Grade 1–2, % (40 treated patients): 12.5%
Treatment-related Headache, Grade 3–4, % (40 treated patients): 0%
Treatment-related Headache, Total, % (40 treated patients): 12.5%
Treatment-related Mucositis oral, Grade 1–2, % (40 treated patients): 15%
Treatment-related Mucositis oral, Grade 3–4, % (40 treated patients): 0%
Treatment-related Mucositis oral, Total, % (40 treated patients): 15%
Treatment-related Nausea, Grade 1–2, % (40 treated patients): 42.5%
Treatment-related Nausea, Grade 3–4, % (40 treated patients): 2.5%
Treatment-related Nausea, Total, % (40 treated patients): 45%
Treatment-related Palmar–plantar erythrodysesthesia, Grade 1–2, % (40 treated patients): 20%
Treatment-related Palmar–plantar erythrodysesthesia, Grade 3–4, % (40 treated patients): 2.5%
Treatment-related Palmar–plantar erythrodysesthesia, Total, % (40 treated patients): 22.5%
Treatment-related Phototoxicity (skin), Grade 3–4, % (40 treated patients): 15%
Treatment-related Phototoxicity (skin), Total, % (40 treated patients): 60%
grade 3 or 4 related AE: nausea [3]: 2.5%
grade 3 or 4 related AE: palmar–plantar erythrodysesthesia syndrome [3]: 2.5%
grade 3 or 4 related AE: skin phototoxicity [3]: 15%
Diarrhea, any causality, all grades (patients) [4]: 1
Eye phototoxicity, any causality, all grades (patients) [4]: 2
Fatigue, any causality, all grades (patients) [4]: 5
Fatigue, number in parentheses (undefined in table; fits grade 3–4 count) [4]: 2
Headache, any causality, all grades (patients) [4]: 2
Nausea, any causality, all grades (patients) [4]: 6
Palmar–plantar erythrodysesthesia syndrome, any causality, all grades (patients) [4]: 1
Phototoxicity, any causality, all grades (patients) [4]: 4
Phototoxicity, number in parentheses (undefined in table; fits grade 3–4 count) [4]: 2
Anemia, Grade 3 or 4 (patients) (475* mg/m^2 d1,8,15, N pts 6): 2
Dose-limiting toxicities (number) (Dose level 9, 650 mg/m^2/dose, Day 1, 8 & 15 Q4 weeks, 5 enrolled, one occurred after cycle 1): 2 **
maximal administered dose (MAD) (d1, 8, 15 (DL9)): 650 mg/m^2
recommended phase II dose (RP2D) (days 1, 8 and 15 every 4 weeks, 60-minute intravenous infusion): 475 mg/m^2
SAEs considered related to CX-5461 (grade 3 phototoxicity (DL0), grade 2 eye phototoxicity (DL8), grade 3 phototoxicity (DL8)): 3
serious AEs (SAEs) reported (in 13 patients): Sixteen
dose-limiting toxicity (kind) (in vivo): phototoxicity
participants with dose omission because of phototoxicity (in vivo): six
participants with dose reductions because of phototoxicity (in vivo): two
patients discontinuing therapy because of phototoxicity (in vivo): one
